Experimental data from patent US7527935B2, “G-protein coupled receptor having eicosanoid as ligand and gene thereof” (Mitsubishi Tanabe Pharma Corporation, priority 2002, dated 2009).

System: eosinophils
Test: Migration test of eosinophils
Type: cell-based
Conditions: purified human eosinophils; 1.5 hours
Description: Blood was collected (50 ml) from healthy male adult volunteers, and from the collected peripheral blood, eosinophils were purified as follows.
After washing the eosinophils and neutrophils purified in the above sections, the cells were suspended in RPMI1640 supplemented with 0.1% BSA (not containing phenol red) which contains 3 μM Calcein-AM (Dojindo laboratories, fluorescence reagent), so that the cell count became 1×10^6 cells/ml. The suspension was incubated at 37° C. for 30 minutes. The cells were washed twice with the same culture medium, and suspended in the same medium so that the cell count became 1×10^6 cells/ml.
Using these cells, cell migration test was carried out using 2 chambers for migration test (Transwell; 3 μm pore, 24 well, 3422 [Costar]). […]
After the reaction, the chambers were removed, and to the lower chamber was added 66 μl of 10× lysis buffer (5% Triton X-100 dissolved in PBS, 10% ethanol). […] 200 μl of the cell lysate was transferred to 96 well black plate (237105, Nunc), and fluorescence intensities were measured using a fluorometer (ARVO™ SX, Wallac) with an excitation wavelength of 485 nm and a fluorescence wavelength of 535 nm.

Question: Which migration of eosinophils does the source give for `CCCCC/C=C\C/C=C\C/C=C\C=C\C(=O)CCCC(=O)O` [5-oxo-ETE, 5-oxo-6E,8Z,11Z,14Z-eicosatetraenoic acid] here?
Answer: The migration of eosinophils was “has an ability to make these cells migrate”.
